Measured values: ChEMBL document CHEMBL6177982, “Structural Optimization of Pyrazole Compounds as Hsp90 Regulators with Enhanced Antitumor Activity” (J Med Chem, 2025)
Activity calls are given as the source filed them. The calls are words filed in the database; no cut-off is given here.

Assays:
HCT-116 [1] = experiment: Antiproliferative activity against CDC37 knockout human HCT-116 cells assessed as inhibition of cell proliferation incubated for 72 hrs by MTT assay; type: functional, cell-based; settings: for IC50: HCT-116, 72 h
[2] = Selectivity ratio of IC50 for antiproliferative activity against CDC37 knockout human HCT-116 cells to IC50 for antiproliferative activity against human HCT-116 cells; type: functional
[3] = biological target: Heat shock protein HSP 90-beta/Hsp90 co-chaperone Cdc37 (Homo sapiens) (UniProt P08238+Q16543); experiment: Inhibition of His-tagged HSP90(unknown origin)/GST-tagged CDC37 (unknown origin) protein-protein interaction at 100 uM preincubated with HSP90 for 1 hrs followed by CDC37 addition and measured after 1 hrs by HTRF assay relative to control; type: protein-complex assay
HCT-116 [4] = experiment: Antiproliferative activity against human HCT-116 cells assessed as inhibition of cell proliferation incubated for 72 hrs by MTT assay; type: functional, cell-based; settings: HCT-116, 72 h
HT-1080 = experiment: Antiproliferative activity against human HT-1080 cells assessed as inhibition of cell proliferation incubated for 72 hrs by MTT assay; type: functional, cell-based; settings: HT-1080, 72 h
MCF7 = experiment: Antiproliferative activity against human MCF7 cells assessed as inhibition of cell proliferation incubated for 72 hrs by MTT assay; type: functional, cell-based; settings: MCF7, 72 h
CT26 = experiment: Antiproliferative activity against mouse CT26 cells assessed as inhibition of cell proliferation incubated for 72 hrs by MTT assay; type: functional, cell-based; settings: CT26, 72 h
SK-BR-3 = experiment: Antiproliferative activity against human SK-BR-3 cells assessed as inhibition of cell proliferation incubated for 72 hrs by MTT assay; type: functional, cell-based; settings: SK-BR-3, 72 h
HT-29 = experiment: Antiproliferative activity against human HT-29 cells assessed as inhibition of cell proliferation incubated for 72 hrs by MTT assay; type: functional, cell-based; settings: HT-29, 72 h
[5] = Permeability of compound at pH 7.4 incubated for 4 hrs by PAMPA based UV analysis; type: ADME; settings: read-out: permeability
[6] = biological target: Heat shock protein HSP90 (Homo sapiens) (UniProt P07900+P08238); experiment: Induction of thermal stabilization of HSP90 in human HCT-116 cells at 10 uM at 53 to 55 degreeC by CETSA based Western blot analysis; type: cell-based

Structure (SMILES)	IC50 (HCT-116 [1]) [µM]	Ratio IC50 [2]	inhibition [3] [%]	IC50 (HCT-116 [4]) [µM]	further results
COc1cccc(-c2nn(-c3ccccc3)cc2/C=C/C(=O)N2CCCCC2C(N)=O)c1 (stereo unspecified)	> 50	>5	67.8	10.3	–
NC(=O)C1CCCCN1C(=O)/C=C/c1cn(-c2ccccc2)nc1-c1ccc(Cl)cc1 (stereo unspecified)	32.3	2.7	45.4	11.8	–
NC(=O)C1CCCCN1C(=O)/C=C/c1cn(-c2ccccc2)nc1-c1cccc(F)c1 (stereo unspecified)	42.2	3	45.6	14.2	–
NC(=O)C1CCCCN1C(=O)/C=C/c1cn(-c2ccccc2)nc1-c1ccc2ccccc2c1 (stereo unspecified)	> 50	–	< 20	> 50	–
COc1cc(-c2nn(-c3ccccc3)cc2/C=C/C(=O)N2CCCCC2C(N)=O)ccc1Br (stereo unspecified)	44.7	4.4	49.2	10.1	–
NC(=O)C1CCCCN1C(=O)/C=C/c1cn(-c2ccccc2)nc1-c1ccco1 (stereo unspecified)	> 50	>5	55.4	9.79	–
CCN(CC)C(=O)/C=C/c1cn(-c2ccccc2)nc1-c1cccnc1	49.9	4.8	60.2	10.3	–
NC(=O)C1CCCCN1C(=O)/C=C/c1cn(-c2ccccc2)nc1-c1cccc(C(=O)O)c1 (stereo unspecified)	> 50	–	< 20	> 50	–
COc1cc(-c2nn(-c3ccccc3)cc2/C=C/C(=O)N2CCCCC2C(N)=O)ccc1Cl (stereo unspecified)	> 50	<5	43.3	11	–
O=C(/C=C/c1cn(-c2ccccc2)nc1-c1cccnc1)N1CCCCC1	> 50	>5	68.8	8.11	–
NC(=O)C1CCCCN1C(=O)/C=C/c1cn(-c2ccccc2)nc1-c1cccc(N)c1 (stereo unspecified)	> 50	>5	68.3	9.11	–
CCCN(C)C(=O)/C=C/c1cn(-c2ccccc2)nc1-c1cccnc1	48.1	5.2	59.8	9.26	–
NC(=O)C1CCCCN1C(=O)/C=C/c1cn(-c2ccccc2)nc1-c1ccccc1 (stereo unspecified)	28.8	2.8	46.4	10	–
NC(=O)C1CCCCN1C(=O)/C=C/c1cn(-c2ccccc2)nc1Cc1ccccc1 (stereo unspecified)	42.2	2.3	38.9	18.2	–
Cc1ccc(-c2nn(-c3ccccc3)cc2/C=C/C(=O)N2CCCCC2C(N)=O)cc1C (stereo unspecified)	25.1	3.2	62.9	7.83	IC50 (HT-1080): 14.8 µM; IC50 (MCF7): 12.2 µM; IC50 (CT26): 9.24 µM; IC50 (SK-BR-3): 13.9 µM; IC50 (HT-29): 10.2 µM; Papp at 4 h [5]: 230 nm/s
CCCN(CCC)C(=O)/C=C/c1cn(-c2ccccc2)nc1-c1cccnc1	46.3	5.1	63.6	9.04	–
Cc1cc(-c2nn(-c3ccccc3)cc2/C=C/C(=O)N2CCCCC2C(N)=O)ccc1F (stereo unspecified)	> 50	<5	45.7	12.6	–
NC(=O)C1CCCCN1C(=O)/C=C/c1cn(-c2ccccc2)nc1-c1ccccn1 (stereo unspecified)	> 100	>10	69.5	7.11	–
O=S(=O)(CCc1cn(-c2ccccc2)nc1-c1cccnc1)c1ccccc1	> 50	–	–	> 50	Activity [6]: inactive
O=S(=O)(/C=C/c1cn(-c2ccccc2)nc1-c1cccnc1)c1ccc(Cl)cc1	> 50	>50	89.2	1.28	–
CCOC(=O)c1cccc(-c2nn(-c3ccccc3)cc2/C=C/C(=O)N2CCCCC2C(N)=O)c1 (stereo unspecified)	> 50	–	< 20	> 50	–
Cc1cccc(-c2nn(-c3ccccc3)cc2/C=C/C(=O)N2CCCCC2C(N)=O)c1 (stereo unspecified)	35	4.3	52.9	8.12	–

Structure (SMILES)	IC50 (HCT-116 [1]) [µM]	Ratio IC50 [2]	inhibition [3] [%]	IC50 (HCT-116 [4]) [µM]	further results
Cc1ccccc1-c1nn(-c2ccccc2)cc1/C=C/C(=O)N1CCCCC1C(N)=O (stereo unspecified)	27.5	2.7	45.4	10.2	–
NC(=O)C1CCCCN1C(=O)/C=C/c1cn(-c2ccccc2)nc1-c1cccnc1Br (stereo unspecified)	> 50	<5	42.9	11.8	–
O=C(/C=C/c1cn(-c2ccccc2)nc1-c1cccnc1)N1CCCC1	> 50	>5	65.9	8.48	–
O=C(/C=C/c1cn(-c2ccccc2)nc1-c1cccnc1)N1CCCCCC1	–	>20	72.5	7.17	Activity (HCT-116 [1]): inactive
NC(=O)C1CCCCN1C(=O)/C=C/c1cn(-c2ccccc2)nc1-c1cccc(Br)c1 (stereo unspecified)	44.5	3.6	50.2	12.2	–
N#Cc1cccc(-c2nn(-c3ccccc3)cc2/C=C/C(=O)N2CCCCC2C(N)=O)c1 (stereo unspecified)	> 50	–	< 20	> 50	–
NC(=O)C1CCCCN1C(=O)/C=C/c1cn(-c2ccccc2)nc1-c1cncc(C(F)(F)F)c1 (stereo unspecified)	> 50	–	< 20	> 50	–
Cc1ccccc1S(=O)(=O)/C=C/c1cn(-c2ccccc2)nc1-c1cccnc1	> 50	>25	87.6	2.55	–
NC(=O)C1CCCCN1C(=O)/C=C/c1cn(-c2ccccc2)nc1-c1cccnc1 (stereo unspecified)	> 100	>10	74.4	6.12	–
Cc1ccc(-c2nn(-c3ccccc3)cc2/C=C/C(=O)N2CCCCC2C(N)=O)cc1 (stereo unspecified)	30.8	2.8	44.7	10.9	–
COc1ncccc1-c1nn(-c2ccccc2)cc1/C=C/C(=O)N1CCCCC1C(N)=O (stereo unspecified)	> 50	<5	45.7	12.5	–
Cc1ccc(S(=O)(=O)/C=C/c2cn(-c3ccccc3)nc2-c2cccnc2)cc1	> 50	>10	85.8	4.77	–
NC(=O)C1CCCCN1C(=O)/C=C/c1cn(-c2ccccc2)nc1-c1cccc(Cl)c1 (stereo unspecified)	28.2	3.1	48.3	9.17	–
NC(=O)C1CCCCN1C(=O)/C=C/c1cn(-c2ccccc2)nc1-c1ccncc1 (stereo unspecified)	> 100	>10	70.4	8.11	–
COc1cncc(-c2nn(-c3ccccc3)cc2/C=C/C(=O)N2CCCCC2C(N)=O)c1 (stereo unspecified)	> 100	>10	70.9	8.98	–
Cc1cc(-c2nn(-c3ccccc3)cc2/C=C/C(=O)N2CCCCC2C(N)=O)ccc1Cl (stereo unspecified)	42.7	4	46.9	10.6	–
Cc1cccc(S(=O)(=O)/C=C/c2cn(-c3ccccc3)nc2-c2cccnc2)c1	> 50	>10	83.2	4.23	–
CN(C)C(=O)/C=C/c1cn(-c2ccccc2)nc1-c1cccnc1	46	3.7	58.9	12.4	–
NC(=O)C1CCCCN1C(=O)/C=C/c1cn(-c2ccccc2)nc1-c1cncc(Br)c1 (stereo unspecified)	> 100	>10	72.5	9.18	–
NC(=O)C1CCCCN1C(=O)/C=C/c1cn(-c2ccccc2)nc1-c1cccc([N+](=O)[O-])c1 (stereo unspecified)	> 50	–	< 20	> 50	–
NC(=O)C1CCCCN1C(=O)/C=C/c1cn(-c2ccccc2)nc1-c1cccs1 (stereo unspecified)	> 50	>5	59	8.46	–
